Measurements taken from US20100168102A9, “Amide Derivatives as Kinase Inhibitors” (Devgen NV, priority 2005, published 2010).

Columns and labels:
human ROCKα/ROCKII mix = target: T1, human ROCKα/ROCKII mix (Homo sapiens, UniProt O75116); assay: Biochemical assay for ROCK (fluorescence polarization, ROCK IMAP Kit); details: compounds of Formula XIV, Table 3
T1 construct: purchased Upstate Biotechnology 14-451

PKC epsilon = target: T2, PKC epsilon (Homo sapiens, UniProt Q02156); assay: Biochemical assay for PKC epsilon (fluorescence polarization, Protein Kinase C Assay Kit, Red); details: compounds of Formula XIV, Table 3; read-out: IC50 μM PKCε
T2 construct: purchased Invitrogen P2282
T2 sequence (Q02156 1-737): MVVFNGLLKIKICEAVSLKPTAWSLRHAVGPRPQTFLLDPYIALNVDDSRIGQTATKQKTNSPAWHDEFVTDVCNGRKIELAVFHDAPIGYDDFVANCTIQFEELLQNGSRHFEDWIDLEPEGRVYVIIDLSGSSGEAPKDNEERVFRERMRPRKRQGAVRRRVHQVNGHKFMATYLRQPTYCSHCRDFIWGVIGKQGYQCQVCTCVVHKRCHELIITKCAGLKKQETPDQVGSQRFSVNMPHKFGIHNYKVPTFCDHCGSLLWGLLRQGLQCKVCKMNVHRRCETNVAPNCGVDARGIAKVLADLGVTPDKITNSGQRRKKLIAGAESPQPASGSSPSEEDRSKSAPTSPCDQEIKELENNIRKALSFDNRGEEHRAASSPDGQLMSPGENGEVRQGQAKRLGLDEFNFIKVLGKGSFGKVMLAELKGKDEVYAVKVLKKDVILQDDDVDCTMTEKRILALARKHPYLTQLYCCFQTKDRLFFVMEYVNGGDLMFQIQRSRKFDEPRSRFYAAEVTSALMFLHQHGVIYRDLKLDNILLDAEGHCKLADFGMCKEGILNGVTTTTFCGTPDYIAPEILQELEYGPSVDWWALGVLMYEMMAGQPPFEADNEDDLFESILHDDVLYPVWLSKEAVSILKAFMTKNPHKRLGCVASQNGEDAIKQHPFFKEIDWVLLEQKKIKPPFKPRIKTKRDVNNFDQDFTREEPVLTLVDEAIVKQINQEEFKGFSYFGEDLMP
In short: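 PKC epsilon at 10 ng/ml final was preincubated 30 min at room temperature with compound in HEPES pH 7.4 with DTT and Triton X-100. ATP/protein substrate was then added in buffer with MgCl2 and CaCl2 for 80 min. The reaction was stopped with EDTA, phosphorylation was detected by fluorescence polarization with rhodamine tracer and anti-phosphoserine antibody, and IC50 values came from curve fits.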

T1 sequence (O75116 11-552 limits assumed): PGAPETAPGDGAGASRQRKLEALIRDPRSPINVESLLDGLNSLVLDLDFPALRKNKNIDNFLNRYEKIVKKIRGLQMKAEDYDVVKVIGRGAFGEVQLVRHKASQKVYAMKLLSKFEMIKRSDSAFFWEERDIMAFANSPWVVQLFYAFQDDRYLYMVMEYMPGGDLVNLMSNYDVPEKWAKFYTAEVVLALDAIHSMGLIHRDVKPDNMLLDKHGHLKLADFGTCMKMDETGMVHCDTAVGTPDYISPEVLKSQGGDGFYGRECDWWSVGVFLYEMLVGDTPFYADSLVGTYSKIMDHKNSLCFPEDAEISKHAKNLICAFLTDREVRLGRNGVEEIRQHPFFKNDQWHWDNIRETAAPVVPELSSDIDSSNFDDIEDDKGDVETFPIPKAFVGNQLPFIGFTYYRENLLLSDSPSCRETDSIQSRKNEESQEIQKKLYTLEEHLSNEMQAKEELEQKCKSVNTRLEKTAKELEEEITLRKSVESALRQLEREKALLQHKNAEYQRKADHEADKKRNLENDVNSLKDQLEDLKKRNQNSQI

Row | Structure (SMILES) | IC50 (human ROCKα/ROCKII mix) | IC50 (PKC epsilon)
1 | NC(CC(=O)NCc1ccc(F)cc1)c1ccc(C(=O)Nc2ccncc2)cc1 (stereo not shown) [Compound 258, 4-[1-Amino-2-(4-fluoro-benzylcarbamoyl)-ethyl]-N-pyridin-4-yl-benzamide] | 0.05 to 0.5 µM | 0.05 to 0.5 µM
2 | NC(CC(=O)NCc1ccccc1Br)c1ccc(C(=O)Nc2ccncc2)cc1 (stereo not shown) [Compound 259, 4-[1-Amino-2-(2-bromo-benzylcarbamoyl)-ethyl]-N-pyridin-4-yl-benzamide] | 0.05 to 0.5 µM | 0.5 to 5 µM
3 | NC(CC(=O)NCc1cccc(Br)c1)c1ccc(C(=O)Nc2ccncc2)cc1 (stereo not shown) [Compound 260, 4-[1-Amino-2-(3-bromo-benzylcarbamoyl)-ethyl]-N-pyridin-4-yl-benzamide] | 0.05 to 0.5 µM | 0.5 to 5 µM
4 | NC(CC(=O)NCc1ccc(F)cc1Cl)c1ccc(C(=O)Nc2ccncc2)cc1 (stereo not shown) [Compound 261, 4-[1-Amino-2-(2-chloro-4-fluoro-benzylcarbamoyl)-ethyl]-N-pyridin-4-yl-benzamide] | 0.05 to 0.5 µM | 0.5 to 5 µM
5 | NC(CC(=O)NCc1ccc(Br)cc1F)c1ccc(C(=O)Nc2ccncc2)cc1 (stereo not shown) [Compound 262, 4-[1-Amino-2-(4-bromo-2-fluoro-benzylcarbamoyl)-ethyl]-N-pyridin-4-yl-benzamide] | 0.05 to 0.5 µM | 0.5 to 5 µM
6 | NC(CC(=O)NCc1ccccc1C(F)(F)F)c1ccc(C(=O)Nc2ccncc2)cc1 (stereo not shown) [Compound 263, 4-[1-Amino-2-(2-trifluoromethyl-benzylcarbamoyl)-ethyl]-N-pyridin-4-yl-benzamide] | 0.05 to 0.5 µM | 0.5 to 5 µM
7 | NC(CC(=O)NCc1cccc(C(F)(F)F)c1)c1ccc(C(=O)Nc2ccncc2)cc1 (stereo not shown) [Compound 264, 4-[1-Amino-2-(3-trifluoromethyl-benzylcarbamoyl)-ethyl]-N-pyridin-4-yl-benzamide] | 0.05 to 0.5 µM | 0.5 to 5 µM
8 | NC(CC(=O)NCc1ccc(C(F)(F)F)cc1)c1ccc(C(=O)Nc2ccncc2)cc1 (stereo not shown) [Compound 265, 4-[1-Amino-2-(4-trifluoromethyl-benzylcarbamoyl)-ethyl]-N-pyridin-4-yl-benzamide] | 0.05 to 0.5 µM | 0.5 to 5 µM
9 | NC(CC(=O)NCc1ccc(F)c(C(F)(F)F)c1)c1ccc(C(=O)Nc2ccncc2)cc1 (stereo not shown) [Compound 266, 4-[1-Amino-2-(4-fluoro-3-trifluoromethyl-benzylcarbamoyl)-ethyl]-N-pyridin-4-yl-benzamide] | 0.05 to 0.5 µM | 0.5 to 5 µM
10 | NC(CC(=O)NCc1ccc(C(F)(F)F)c(F)c1)c1ccc(C(=O)Nc2ccncc2)cc1 (stereo not shown) [Compound 267, 4-[1-Amino-2-(3-fluoro-4-trifluoromethyl-benzylcarbamoyl)-ethyl]-N-pyridin-4-yl-benzamide] | 0.05 to 0.5 µM | 0.5 to 5 µM
11 | NC(CC(=O)NCc1cc(C(F)(F)F)cc(C(F)(F)F)c1)c1ccc(C(=O)Nc2ccncc2)cc1 (stereo not shown) [Compound 268, 4-[1-Amino-2-(3,5-bis-trifluoromethyl-benzylcarbamoyl)-ethyl]-N-pyridin-4-yl-benzamide] | 0.05 to 0.5 µM | 0.5 to 5 µM
12 | NC(CC(=O)NCc1ccccc1OC(F)(F)F)c1ccc(C(=O)Nc2ccncc2)cc1 (stereo not shown) [Compound 269, 4-[1-Amino-2-(2-trifluoromethoxy-benzylcarbamoyl)-ethyl]-N-pyridin-4-yl-benzamide] | 0.05 to 0.5 µM | 0.5 to 5 µM
13 | NC(CC(=O)NCc1cccc(OC(F)(F)F)c1)c1ccc(C(=O)Nc2ccncc2)cc1 (stereo not shown) [Compound 270, 4-[1-Amino-2-(3-trifluoromethoxy-benzylcarbamoyl)-ethyl]-N-pyridin-4-yl-benzamide] | 0.05 to 0.5 µM | 0.5 to 5 µM
14 | NC(CC(=O)NCc1ccc(OC(F)(F)F)cc1)c1ccc(C(=O)Nc2ccncc2)cc1 (stereo not shown) [Compound 271, 4-[1-Amino-2-(4-trifluoromethoxy-benzylcarbamoyl)-ethyl]-N-pyridin-4-yl-benzamide] | 0.05 to 0.5 µM | 0.5 to 5 µM
15 | NC(CC(=O)NCc1cccc([N+](=O)[O-])c1)c1ccc(C(=O)Nc2ccncc2)cc1 (stereo not shown) [Compound 272, 4-[1-Amino-2-(3-nitro-benzylcarbamoyl)-ethyl]-N-pyridin-4-yl-benzamide] | 0.05 to 0.5 µM | 0.5 to 5 µM
16 | NC(CC(=O)NCc1ccc([N+](=O)[O-])cc1)c1ccc(C(=O)Nc2ccncc2)cc1 (stereo not shown) [Compound 273, 4-[1-Amino-2-(4-nitro-benzylcarbamoyl)-ethyl]-N-pyridin-4-yl-benzamide] | 0.05 to 0.5 µM | 0.5 to 5 µM

Row | Structure (SMILES) | IC50 (human ROCKα/ROCKII mix) | IC50 (PKC epsilon)
17 | CS(=O)(=O)c1ccc(CNC(=O)CC(N)c2ccc(C(=O)Nc3ccncc3)cc2)cc1 (stereo not shown) [Compound 275, 4-[1-Amino-2-(4-methanesulfonyl-benzylcarbamoyl)-ethyl]-N-pyridin-4-yl-benzamide] | 0.05 to 0.5 µM | 0.5 to 5 µM
18 | NC(CC(=O)NC1Cc2ccccc2C1)c1ccc(C(=O)Nc2ccncc2)cc1 (stereo not shown) [Compound 280, 4-[1-amino-2-(indan-2-ylcarbamoyl)-ethyl]-N-pyridin-4-yl-benzamide] | 0.05 to 0.5 µM | 0.5 to 5 µM
19 | CC(CNC(=O)CC(N)c1ccc(C(=O)Nc2ccncc2)cc1)c1ccccc1 (stereo not shown) [Compound 283, 4-[1-Amino-2-(2-phenyl-propyl-carbamoyl)-ethyl]-N-pyridin-4-yl-benzamide] | 0.05 to 0.5 µM | 0.5 to 5 µM
20 | Cc1ccc(CCNC(=O)CC(N)c2ccc(C(=O)Nc3ccncc3)cc2)cc1 (stereo not shown) [Compound 284, 4-[1-Amino-2-(2-p-tolyl-ethyl-carbamoyl)-ethyl]-N-pyridin-4-yl-benzamide] | 0.05 to 0.5 µM | 5 to 50 µM
21 | CC(C)(C)c1ccc(CCNC(=O)CC(N)c2ccc(C(=O)Nc3ccncc3)cc2)cc1 (stereo not shown) [Compound 285, 4-{1-Amino-2-[2-(4-tert-butyl-phenyl)-ethylcarbamoyl]-ethyl}-N-pyridin-4-yl-benzamide] | 0.05 to 0.5 µM | 5 to 50 µM
22 | CCOc1ccccc1CCNC(=O)CC(N)c1ccc(C(=O)Nc2ccncc2)cc1 (stereo not shown) [Compound 288, 4-{1-Amino-2-[2-(2-ethoxy-phenyl)-ethylcarbamoyl]-ethyl}-N-pyridin-4-yl-benzamide] | 0.05 to 0.5 µM | 0.5 to 5 µM
23 | COc1cccc(CCNC(=O)CC(N)c2ccc(C(=O)Nc3ccncc3)cc2)c1 (stereo not shown) [Compound 289, 4-{1-Amino-2-[2-(3-methoxy-phenyl)-ethylcarbamoyl]-ethyl}-N-pyridin-4-yl-benzamide] | 0.05 to 0.5 µM | 0.5 to 5 µM
24 | CCOc1ccc(CCNC(=O)CC(N)c2ccc(C(=O)Nc3ccncc3)cc2)cc1 (stereo not shown) [Compound 290] | 0.05 to 0.5 µM | 0.5 to 5 µM
25 | COc1ccc(CCNC(=O)CC(N)c2ccc(C(=O)Nc3ccncc3)cc2)cc1 (stereo not shown) [Compound 291, 4-{1-Amino-2-[2-(4-methoxy-phenyl)-ethylcarbamoyl]-ethyl}-N-pyridin-4-yl-benzamide] | 0.05 to 0.5 µM | 0.5 to 5 µM
26 | NC(CC(=O)NCCc1ccc(Oc2ccccc2)cc1)c1ccc(C(=O)Nc2ccncc2)cc1 (stereo not shown) [Compound 292, 4-{1-Amino-2-[2-(4-phenoxy-phenyl)-ethylcarbamoyl]-ethyl}-N-pyridin-4-yl-benzamide] | 0.05 to 0.5 µM | 0.5 to 5 µM
27 | COc1ccc(CCNC(=O)CC(N)c2ccc(C(=O)Nc3ccncc3)cc2)cc1OC (stereo not shown) [Compound 293, 4-{1-Amino-2-[2-(3,4-dimethoxy-phenyl)-ethylcarbamoyl]-ethyl}-N-pyridin-4-yl-benzamide] | 0.5 to 5 µM | 5 to 50 µM
28 | COc1cc(CCNC(=O)CC(N)c2ccc(C(=O)Nc3ccncc3)cc2)cc(OC)c1 (stereo not shown) [Compound 294, 4-{1-Amino-2-[2-(3,5-dimethoxy-phenyl)-ethylcarbamoyl]-ethyl}-N-pyridin-4-yl-benzamide] | 0.05 to 0.5 µM | 5 to 50 µM
29 | COc1ccc(OC)c(CCNC(=O)CC(N)c2ccc(C(=O)Nc3ccncc3)cc2)c1 (stereo not shown) [Compound 295, 4-{1-Amino-2-[2-(3,6-dimethoxy-phenyl)-ethylcarbamoyl]-ethyl}-N-pyridin-4-yl-benzamide] | 0.05 to 0.5 µM | 5 to 50 µM
30 | NC(CC(=O)NCCc1ccccc1Cl)c1ccc(C(=O)Nc2ccncc2)cc1 (stereo not shown) [Compound 297, 4-{1-Amino-2-[2-(2-chloro-phenyl)-ethylcarbamoyl]-ethyl}-N-pyridin-4-yl-benzamide] | 0.05 to 0.5 µM | 0.5 to 5 µM
31 | NC(CC(=O)NCCc1cccc(Cl)c1)c1ccc(C(=O)Nc2ccncc2)cc1 (stereo not shown) [Compound 298, 4-{1-Amino-2-[2-(3-chloro-phenyl)-ethylcarbamoyl]-ethyl}-N-pyridin-4-yl-benzamide] | 0.05 to 0.5 µM | 0.5 to 5 µM
32 | NC(CC(=O)NCCc1ccc(Cl)cc1)c1ccc(C(=O)Nc2ccncc2)cc1 (stereo not shown) [Compound 299, 4-{1-Amino-2-[2-(4-chloro-phenyl)-ethylcarbamoyl]-ethyl}-N-pyridin-4-yl-benzamide] | 0.05 to 0.5 µM | 0.5 to 5 µM
